Values joined by “and” are separate entries in the source; they are usually repeats but may differ in a detail not shown here. Identical values can stand only once. “Also recorded” adds a separate entry of the source. Bounds are passed on as bounds.

The target of test [1] is T1, alpha 1D adrenoceptor (rat aorta) (Rattus norvegicus, UniProt P23944).
T1 construct: from tissue; host or cells: rat aorta segments with endothelium
T1 sequence (P23944 1-561): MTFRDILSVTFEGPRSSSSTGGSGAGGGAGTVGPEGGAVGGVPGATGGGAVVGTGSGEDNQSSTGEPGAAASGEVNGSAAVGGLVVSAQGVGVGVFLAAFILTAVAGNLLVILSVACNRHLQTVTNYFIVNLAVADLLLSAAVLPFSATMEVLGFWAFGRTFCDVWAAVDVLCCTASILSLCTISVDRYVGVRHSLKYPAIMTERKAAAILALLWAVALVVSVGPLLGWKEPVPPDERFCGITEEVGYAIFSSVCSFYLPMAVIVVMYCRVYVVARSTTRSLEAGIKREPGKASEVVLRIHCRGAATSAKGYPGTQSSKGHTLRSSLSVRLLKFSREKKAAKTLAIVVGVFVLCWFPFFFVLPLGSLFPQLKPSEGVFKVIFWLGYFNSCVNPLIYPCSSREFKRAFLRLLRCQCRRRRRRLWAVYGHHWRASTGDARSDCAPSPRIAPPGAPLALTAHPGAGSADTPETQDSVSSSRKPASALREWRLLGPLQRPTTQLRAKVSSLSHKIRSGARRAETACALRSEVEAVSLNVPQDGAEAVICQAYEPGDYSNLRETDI
The experiment in a line: Vasoconstriction assay in rat aorta induced by norepinephrine. It counts as cell-based. The procedure: Vasoconstriction Assay in Mouse Aorta Induced By Norepinephrine
Aorta segments with endothelium (3 mm), withdrawn from young male rats (250-300 g), were placed in containers containing physiologic solution (NaCl 122 mM, KCl 5 mM, NaHCO3 15 mM, glucose 11.5 mM, MgCl2 1.2 mM, CaCl2 1.25 mM and KH2PO4 1.2 mM), kept at 37° C. under aeration with a mixture of 95% of O2 and 5% of CO2, and submitted to a pre-charge of 5 mN for 60 minutes. During this period, eventual tension adjustments were performed until the stabilization in 0.5 g, always with renewal with physiologic solution. Then, vasoconstriction was induced by 60 mM KCl solution, in each ring, to verify the viability of the organ on the day of experiment. The preparation was submitted to the contraction with norepinephrine (5×10^−5 M) and, then the rings were washed to reach the basal line (0% of vasoconstriction). The procedure was repeated until the obtainment of a constant curve. Later, a curve, using increasing concentrations of norepinephrine (3×10^−8-5×10^−5 M), was performed for each ring, as a positive control. The segments were washed to reach the basal line (0% of vasoconstriction) and incubated with the test compounds, individually, for 30 minutes. A second norepinephrine curve was performed and obtained data compared to the first control curve. […] The aorta rings were used once for each compound.
Determination of the LASSBio 772 Antagonist Potency (pKB) on the Vasoconstriction of Rabbit or Rat Thoracic Aorta.

In a further test the target is T2, H1 receptors (Cavia porcellus, UniProt P31389).
T2 construct: from tissue; host or cells: guinea pig trachea strips
Kind of test: Cobaio (guinea pig) trachea contraction induced by histamine. It counts as cell-based. To be noted: histamine 100 microM, compound 3 nM-30 microM.

Test [2] has as its system muscarinic cholinergic receptors. The experiment in a line: Cobaio (guinea pig) trachea contraction induced by carbacol. To be noted: 30 microM compound, carbacol 10 microM. Type of test: cell-based. An excerpt:
Selectivity Assay for Protein G-Coupled, Beta-Adrenergic, Muscarinic Cholinergic and Histaminergic Bioreceptors
Determination of the Inhibitory Potency (IC50) of LASSBio 772 on Vasoconstriction of the Cobaio (Guinea Pig) Trachea
Cobaios albinos from both sexes, weighing between 400 and 600 g were used in this experiment. The animals were sacrificed by cervical displacement and posterior bleed. Then, their tracheas were removed, kept in 5 microM indometacin added Krebs-Henseleit physiologic solution and oxygenated with carbogenic mixture (95% O2 and 5% CO2), proceeding the removal of the connective and adhered adipose tissue. From these tracheas were obtained segments with 4-6 rings, that are sectioned in the opposite side of the smooth musculature, originating strips used in the contractions assay (ARAKIDA et al., J. Pharmacol. Exper. Therap., 287: 633-639, 1998). […]
After the period, the organ is treated with agonists that will induce contractions. […] The tissue viability was evaluated by contraction induction with histamine 100 microM or carbacol 10 microM. […]
The compound LASSBio 772 was evaluated in the concentration of 30 microM as for its relaxation capability in comparison to contractions induced by carbacol, muscarinic cholinergic agonist, at a 10 microM concentration.

Another test has as its target T3, α1A (Oryctolagus cuniculus, UniProt O02824).
T3 construct: from tissue
T3 sequence (O02824 1-466): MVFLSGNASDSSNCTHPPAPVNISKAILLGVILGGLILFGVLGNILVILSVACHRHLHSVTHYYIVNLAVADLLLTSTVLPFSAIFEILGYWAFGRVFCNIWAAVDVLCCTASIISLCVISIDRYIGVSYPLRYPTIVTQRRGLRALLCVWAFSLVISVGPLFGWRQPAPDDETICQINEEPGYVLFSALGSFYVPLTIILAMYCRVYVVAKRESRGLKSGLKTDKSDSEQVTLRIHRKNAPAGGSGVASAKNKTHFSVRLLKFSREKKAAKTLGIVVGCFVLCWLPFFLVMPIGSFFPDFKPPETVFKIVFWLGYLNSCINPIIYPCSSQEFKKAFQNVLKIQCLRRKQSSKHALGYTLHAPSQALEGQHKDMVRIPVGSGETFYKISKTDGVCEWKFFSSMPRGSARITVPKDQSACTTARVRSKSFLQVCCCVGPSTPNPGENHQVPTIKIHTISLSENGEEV
The experiment in a line: Binding study in rabbit liver.

T2 sequence (P31389 whole entry): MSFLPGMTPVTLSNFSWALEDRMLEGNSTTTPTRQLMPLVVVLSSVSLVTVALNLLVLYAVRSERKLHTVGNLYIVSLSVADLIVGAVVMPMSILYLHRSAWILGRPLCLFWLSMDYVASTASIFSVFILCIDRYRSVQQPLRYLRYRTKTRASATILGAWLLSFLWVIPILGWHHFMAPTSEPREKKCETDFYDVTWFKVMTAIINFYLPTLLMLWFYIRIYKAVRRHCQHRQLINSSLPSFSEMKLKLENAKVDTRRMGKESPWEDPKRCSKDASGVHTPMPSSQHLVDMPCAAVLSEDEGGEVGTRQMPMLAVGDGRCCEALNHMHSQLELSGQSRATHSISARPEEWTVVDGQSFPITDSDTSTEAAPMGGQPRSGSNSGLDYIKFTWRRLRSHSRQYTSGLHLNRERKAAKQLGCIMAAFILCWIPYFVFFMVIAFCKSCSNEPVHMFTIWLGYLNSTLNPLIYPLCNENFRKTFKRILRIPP
Method for H1 receptors: These strips were adapted in glass containers of 1.0 mL containing nutritious solution and continuous aeration with carbogenic mixture. The containers are maintained in a bath (Ugo Basile 4050) at the constant temperature of 37±0.50° C., mimicking thus physiologic terms in vitro. The trachea strips were connected to isometric force transducers (Ugo Basile 7011-4), submitted to a tension of 1 g and rested for 1 hour, changing the solution in 15 minute intervals, to obtain the balance to this tension.

Turning to `COc1ccccc1N1CCN(CCc2ccc3c(c2)OCO3)CC1` [LASSBio 772, 1-(2-1,3-Benzodioxol-5-yl-ethyl)-4-(2-methoxy-phenyl)-piperazine], the “selectivity index for alpha 1D in comparison to alpha 1B subtype” value in test [1] was no less than 10000. Moreover, the Kb in test [1] (pKB, rat aorta, α1D) is 0.0132 nM and 0.0138 nM. The “affinity for alpha 1D subtype relative to BMY 7378” value in test [1] (rat aorta) is no less than 430 times. Also, the IC50 on H1 receptors was found to be 309 nM; at α1A, 4.9 nM. The “inhibition of carbacol-induced contractions” value in test [2] is reported as “not able to significantly inhibit the contractions; also recorded: did not present any activity”. Besides, the “% of Contraction” value in test [2] (n=3) is 122.1±8.6%.

(Values after patent publication US20070219213A1, “Use of Adrenergic N-Phenylpiperazine Antagonists, Pahrmaceutical Compositions Containning Them, and Methods of Preparing Them” (priority 2004, published 2007).)
